Source: patent US10865203B2, “Ligands selective to alpha 6 subunit-containing GABAA receptors and their methods of use” (UWM Research Foundation, Inc., priority 2015, dated 2020)
“Also recorded” adds a separate entry of the source.

Experiments:
[1] = system: αxβx, αxβ3γ2 and αβδ receptors; assay: Electrophysiology in Xenopus oocytes, functional screening over all tested receptors; type: cell-based, rat
Procedure: Mature female Xenopus laevis (Nasco, Fort Atkinson, Wis., USA) were anaesthetized in a bath of ice-cold 0.17% Tricain (Ethyl-m-aminobenzoat, Sigma-Aldrich, St. Louis, Mo., USA) before decapitation and transfer of the frog's ovary to ND96 medium (96 mM NaCl, 2 mM KCl, 1 mM MgCl2, 5 mM HEPES; pH 7.5). Following incubation in 1 mg/mL collagenase (Sigma-Aldrich, St. Louis, Mo., USA) for 30 min, stage 5 to 6 oocytes were singled out of the ovary and defolliculated using a platinum wire loop. Oocytes were stored and incubated at 18° C. in NDE medium (96 mM NaCl, 2 mM KCl, 1 mM MgCl2, 5 mM HEPES, 1.8 mM CaCl2; pH 7.5) that was supplemented with 100 U per mL-1 penicillin, 100 μg per mL-1 streptomycin and 2.5 mM pyruvate. Oocytes were injected with an aqueous solution of mRNA. A total of 2.5 ng of mRNA per oocyte was injected. […] Maximum currents measured in mRNA injected oocytes were in the microampere range for all receptor subtypes. […] Data were digitized using a Digidata 1322A or 1550 data acquisition system (Axon Instruments, Union City, Calif., USA), recorded using Clampex 10.5 software (Molecular Devices, Sunnyvale, Calif., USA), and analyzed using Clampfit 10.5 and GraphPad Prism 6.0 (La Jolla, Calif., USA) software. […]
For selected test compounds full dose response curves were recorded in α1-6β3γ2 receptors. […]

[2] = system: GABA-A receptors, including α6 GABA-ARs; assay: Modulation of GABA-A receptors by constituent of Cl leaves
[3] = Microsomal stability assay, human liver microsomes; type: in vitro ADME; details: 10 μM test compound, 0.5 mg/mL protein, 37° C.
Procedure: (§1) 4 μL of 1 mM test compound at a final concentration of 10 μM dissolved in DMSO/ACN/Methanol/Ethanol was preincubated at 37° C. for 5 minutes on a digital heating shaking dry bath (Fischer scientific, Pittsburgh, Pa.) in a mixture containing 282 μL of water, 80 μL of phosphate buffer (0.5 M, pH 7.4), 20 μL of NADPH Regenerating System Solution A (BD Bioscience, San Jose, Calif.) and 4 μL of NADPH Regenerating System Solution B (BD Bioscience, San Jose, Calif.) in a total volume of 391.2 μL. Following preincubation, the reaction was initiated by addition of 8.8 μL of either human liver microsomes (BD Gentest, San Jose, Calif.), mouse liver microsomes (Life technologies, Rockford, Ill.), at a protein concentration of 0.5 mg/mL. Aliquots of 50 μL were taken at time intervals of 0 (without microsomes), 10, 20, 30, 40, 50 and 60 minutes. Each aliquot was added to 100 μL of cold acetonitrile solution containing 1 μM/2 μM internal standard. This was followed by sonication for 10 seconds and centrifugation at 10,000 rpm for 5 minutes. 100 μL of the supernatant was transferred into Spin-X HPLC filter tubes (Corning Incorporated, NY) and centrifuged at 13,000 rpm for 5 minutes. […] The ratio of the peak areas of the internal standard and test compound was calculated for every time point and the natural log of the ratio were plotted against time to determine the linear slope (k). […] All experiments were repeated three times in duplicates.

[4] = Microsomal stability assay, mouse liver microsomes; type: in vitro ADME; details: 10 μM test compound, 0.5 mg/mL protein, 37° C.
Procedure: as §1

Compound	activity in all tested receptors [1]	modulation of GABA-A receptors [2]	% left after 1 hr. (HLM) [3] [%]	% left after 1 hr. (MLM) [4] [%]	Half-life (min) (MLM) [4]
COc1ccccc1-n1nc2c3cc(Cl)ccc3[nH]cc-2c1=O [LAU 165, 8-Chloro-2-(2-methoxyphenyl)-2H-pyrazolo[4,3-c]quinolin-3(5H)-one]	inactive in all receptors that were tested so far; also recorded: essentially inactive in all tested receptors				
COc1c(O)cc2oc(-c3ccc(O)cc3)cc(=O)c2c1O [hispidulin]		positive allosteric modulator			
[2H]C([2H])([2H])Oc1ccccc1-n1nc2c3cc(Cl)ccc3[nH]cc-2c1=O [DK-I-87-1, 8-Chloro-2-(2-methoxy-d3-phenyl)-2,5-dihydro-3H-pyrazolo[4,3-c]quinolin-3-one]	inactive in all receptors that were tested so far; also recorded: essentially inactive in all tested receptors		94.7 ± 0.07	94.91 ± 0.10	993 ± 189
